Reference: the supplement of paper PMC11451515

Tests used:
Conditions in all cases: 48 h
P12-Ichikawa [1] = assay: AUC of viability dose-response curve (% viability x log10 dose units); higher = less sensitive
Method in brief: (§1)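 Library compounds in DMSO were applied for 48 h at 37°C at 11 threefold doses (47 μM to 0.79 nM) to medium-adapted leukemia cells in 1536-well plates holding 500 or 1000 cells/well. Luminescence from CellTiter-Glo One was normalised plate by plate against DMSO and cell-free wells. Area under the curve came from trapezoidal integration of a log-logistic fit, after scaling curves that rose above full viability and discarding those that failed quality control. The fit had four parameters and used log10 doses.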

SEM cells [2] = assay: as above
Method in brief: as §1

NOMO1 = assay: as above
Method in brief: as §1

SEM cells [3] = assay: cell viability relative to DMSO control; higher = less cytotoxic
Method in brief: (§2)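 Viability values are per-plate percentages of DMSO wells, with background from cell-free wells. Library compounds in DMSO were pin-dosed, in an 11-point threefold series from 47 μM to 0.79 nM, onto NOMO1 or SEM (500 cells/well) or P12-Ichikawa (1000 cells/well) leukemia cells in 1536-well plates (5 μl). Those cells had been adapted for at least four passages in each medium, and CellTiter-Glo One luminescence was read after 48 h at 37°C.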

P12-Ichikawa [4] = assay: as above
Method in brief: as §2

C[C@@H](N)c1ccc(C(=O)Nc2ccnc3[nH]ccc23)cc1
AUC of viability dose-response curve
Conditions	NOMO1	P12-Ichikawa [1]	SEM cells [2]
HPLM + 10% dialyzed FBS	462	471	454
RPMI 5 mM glucose + 10% FBS	455	461	437
RPMI 5 mM glucose + 10% dialyzed FBS	455	466	455

cell viability [%], SEM cells [3]
Conditions	HPLM + 10% dialyzed FBS	RPMI 5 mM glucose + 10% FBS
0.000781 µM	99.4	115
0.00234 µM	115	135
0.00702 µM	122	124
0.0211 µM	121	155
0.0632 µM	121	145
0.19 µM	144	140
0.569 µM	136	130
1.71 µM	118	139
5.12 µM	118	114
15.4 µM	105	86.7
46.1 µM	40.7	52.5

CCCCN(CCCC)C(=O)CN1C[C@H](c2ccc3c(c2)OCO3)[C@@H](C(=O)O)[C@@H]1c1ccc(OC)cc1
AUC of viability dose-response curve
Conditions	HPLM + 10% dialyzed FBS	RPMI 5 mM glucose + 10% FBS	RPMI 5 mM glucose + 10% dialyzed FBS
NOMO1	457	470	464
SEM cells [2]	408	427	432

cell viability [%]
Conditions	HPLM + 10% dialyzed FBS	RPMI 5 mM glucose + 10% FBS	RPMI 5 mM glucose + 10% dialyzed FBS
P12-Ichikawa [4], 0.000781 µM	112	107	–
P12-Ichikawa [4], 0.00234 µM	111	122	–
P12-Ichikawa [4], 0.00702 µM	113	115	–
P12-Ichikawa [4], 0.0211 µM	70.2	61.9	–
P12-Ichikawa [4], 0.0632 µM	116	112	–
P12-Ichikawa [4], 0.19 µM	114	122	–
P12-Ichikawa [4], 0.569 µM	107	123	–
P12-Ichikawa [4], 1.71 µM	114	118	–
P12-Ichikawa [4], 5.12 µM	106	36.1	–
P12-Ichikawa [4], 15.4 µM	104	105	–
P12-Ichikawa [4], 46.1 µM	88.4	99.9	–
SEM cells [3], 0.000781 µM	98.6	–	112
SEM cells [3], 0.00234 µM	107	–	112
SEM cells [3], 0.00702 µM	114	–	125
SEM cells [3], 0.0211 µM	98.2	–	84.8
SEM cells [3], 0.0632 µM	103	–	116
SEM cells [3], 0.19 µM	105	–	127
SEM cells [3], 0.569 µM	106	–	109
SEM cells [3], 1.71 µM	92.5	–	106
SEM cells [3], 5.12 µM	28.4	–	74.8
SEM cells [3], 15.4 µM	55.3	–	75.8
SEM cells [3], 46.1 µM	63.4	–	67

Nc1cc(c(cc1S(=O)(N)=O)S(N)(=O)=O)C(/Cl)=C(/Cl)Cl
AUC of viability dose-response curve
Conditions	NOMO1	P12-Ichikawa [1]	SEM cells [2]
HPLM + 10% dialyzed FBS	344	335	396
RPMI 5 mM glucose + 10% FBS	399	396	363
RPMI 5 mM glucose + 10% dialyzed FBS	406	390	379

SEM cells [3], HPLM + 10% dialyzed FBS
Conditions	cell viability [%]
0.000781 µM	110
0.00234 µM	124
0.00702 µM	140
0.0211 µM	124
0.0632 µM	128
0.19 µM	120
0.569 µM	132
1.71 µM	126
5.12 µM	86.4
15.4 µM	10.4
46.1 µM	9.94

Clc1ccccc1CN1CCc2sccc2C1
AUC of viability dose-response curve
Conditions	NOMO1	P12-Ichikawa [1]	SEM cells [2]
HPLM + 10% dialyzed FBS	323	348	453
RPMI 5 mM glucose + 10% FBS	315	340	459
RPMI 5 mM glucose + 10% dialyzed FBS	322	373	460

Conditions	cell viability [%]
P12-Ichikawa [4], HPLM + 10% dialyzed FBS, 0.000781 µM	120
P12-Ichikawa [4], HPLM + 10% dialyzed FBS, 0.00234 µM	121
P12-Ichikawa [4], HPLM + 10% dialyzed FBS, 0.00702 µM	117
P12-Ichikawa [4], HPLM + 10% dialyzed FBS, 0.0211 µM	130
P12-Ichikawa [4], HPLM + 10% dialyzed FBS, 0.0632 µM	129
P12-Ichikawa [4], HPLM + 10% dialyzed FBS, 0.19 µM	132
P12-Ichikawa [4], HPLM + 10% dialyzed FBS, 0.569 µM	129
P12-Ichikawa [4], HPLM + 10% dialyzed FBS, 1.71 µM	59.8
P12-Ichikawa [4], HPLM + 10% dialyzed FBS, 5.12 µM	15.5
P12-Ichikawa [4], HPLM + 10% dialyzed FBS, 15.4 µM	14.4
P12-Ichikawa [4], HPLM + 10% dialyzed FBS, 46.1 µM	16.7
SEM cells [3], RPMI 5 mM glucose + 10% FBS, 0.000781 µM	94.3
SEM cells [3], RPMI 5 mM glucose + 10% FBS, 0.00234 µM	148
SEM cells [3], RPMI 5 mM glucose + 10% FBS, 0.00702 µM	120
SEM cells [3], RPMI 5 mM glucose + 10% FBS, 0.0211 µM	139
SEM cells [3], RPMI 5 mM glucose + 10% FBS, 0.0632 µM	133
SEM cells [3], RPMI 5 mM glucose + 10% FBS, 0.19 µM	152
SEM cells [3], RPMI 5 mM glucose + 10% FBS, 0.569 µM	135
SEM cells [3], RPMI 5 mM glucose + 10% FBS, 1.71 µM	141
SEM cells [3], RPMI 5 mM glucose + 10% FBS, 5.12 µM	144
SEM cells [3], RPMI 5 mM glucose + 10% FBS, 15.4 µM	140
SEM cells [3], RPMI 5 mM glucose + 10% FBS, 46.1 µM	33.3
